These results are taken from patent US6232089A, “CD23 processing enzyme preparation” (SmithKline Beecham Corporation, priority 1998, dated 2001).

The structures appear in SMILES notation. Entries after “also recorded” stand apart in the source; their conditions may differ. Structures can show the parent of a compound that is named as a salt.

Test [1] deals with CD23 processing enzyme. As to the kind of experiment: Solubilized membrane protein CD23 processing enzyme assay. The following applies: concentration not given. Format: biochemical, human.
In test [2] the test system is CD23 processing enzyme. As to the kind of experiment: Membrane CD23 cleavage activity assay (sCD23 release from plasma membranes of RPMI 8866 cells). Format: biochemical, human. Conditions: for IC50: membranes, read-out: IC50 for inhibition of CD23 processing (production of sCD23). How it is done:
Membrane CD23 cleavage activity assay:
Plasma membranes from RPMI 8866 cells, a human Epstein-Barr virus transformed B-cell (Sarfati et al., Immunology 60 (1987) 539-547), or a similar cell line expressing high levels of CD23 are purified using an aqueous extraction method. Cells resuspended in homogenization buffer (20 mM HEPES pH 7.4, 150 mM NaCl, 1.5 mM MgCl2, 1 mM DTT) are broken by N2 cavitation in a Parr bomb and the plasma membrane fraction mixed with other membranes recovered by centrifugation at 10,000×g. The light pellet is resuspended in 0.2 M potassium phosphate, pH 7.2 using 2 ml per 1-3 g wet cells and the nuclear pellet is discarded. The membranes are further fractionated by partitioning between Dextran 500 (6.4% w/w) and polyethylene glycol (PEG) 5000 (6.4% w/w) at 0.25 M sucrose in a total of 16 g per 10-15 mg membrane proteins (Morre and Morre, BioTechniques 7, 946-957 (1989)). The phases are separated by brief centrifugation at 1000×g and the PEG (upper) phase is collected, diluted 3-5 fold with 20 mM potassium phosphate buffer pH 7.4, and centrifuged at 100,000×g to recover membranes in that phase. The pellet is resuspended in phosphate-buffered saline and consists of 3-4 fold enriched plasma membranes as well as some other cell membranes (e.g. lysosomes, Golgi). The membranes are aliquoted and stored at -80° C. Fractionation at 6.6% Dextran/PEG yields plasma membranes enriched 10-fold.
The fractionated membranes are incubated at 37° C. for times up to 4 hours to produce fragments of CD23 which are separated from the membrane after quenching the assay with 5 uM compound 1 by centrifugation at 10,000×g. These CD23 fragments are consistent with those reported (Letellier et al, J Exp. Med. 172, 693-700 (1990)): MW, app 36-37 kDa as determined by 12% sodium dodecylsulfate-polyacrylamide electrophoresis (SDS-PAGE) of N-terminal sequence QKSQ; MW, app 33 kDa with N-terminal sequence LKSQ. Additional bands not sequenced: MW, app 28-29 kDa and a doublet at 25-26 kDa. These are detected by Western blot of the total protein in the incubation using a polyclonal antibody such as the polyclonal anti-CD23 antibody in The Binding Site (Birmingham, UK) enzyme-linked immunoassay (EIA) Bindazyme kit for the determination of soluble CD23. Following removal of the membrane by centrifugation or filtration in 0.2 micron filter plates (Durapore, Millpore), sCD23 can also be determined using the EIA kit from The Binding Site or a similar one utilizing MHM6 anti-CD23 mAb (Rowe et al., Int. J. Cancer, 29, 373-382 (1982)) or another anti-CD23 mAb as the capture antibody in a sandwich EIA. […] Samples were incubated at 37° C. for the varying times, quenched with compound 1, applied to 12% SDS-PAGE, and Western blotting on PVDF (Bio-Rad) membrane performed using standard methodology with a combination of BD4 (prepared as described in Biological example 2) and a polyclonal antibody which recognizes all soluble fragments as the primary antibody. The blot was developed by ECL, scanned using a BioImage system and quantitated using the Visage analysis package.
Inhibition of CD23 processing can also be determined by Western blot or by the 5 EIA (Elisa) method. The amount of soluble CD23 made by 0.5-5 ug membrane protein is measured either by quantitation of the Western blot as described using a Millipore BioImage system, or by EIA and compared to the amount made in the presence of various concentrations of inhibitors. Inhibitors are prepared in solutions of water or dimethylsulfoxide (DMSO) and the final DMSO concentration is not more than 2%. The enzyme activity of CD23 processing is inhibited by 1,10-phenanthroline (1 mM), and not by 1,7-phenanthroline (1 mM), PMSF (1 mM), E-64 (10 uM), pepstatin (10 uM), leupeptin (10 uM), or tosyl-leucylchloroketone (100 uM), and weakly by phosphoramidon (40% inhibition at 100 uM). The enzyme can heretofore best be described as a metalloprotease rather than a serine, cysteine or acid protease. […]

In the next test the test system is CD23 processing activity. Kind of test: Affinity chromatography with compound 8 on streptavidin-agarose. Format: binding, human. How it is done: Affinity Chromatography with compound 8 (compound 28 in synthetic examples)
An affinity column was prepared with compound 8 on streptavidin-agarose beads (Pierce Chemical Co.) by overnight mixing of an estimated five equivalents of compound 8 with beads in 50 mM HEPES, pH 7.5, 0. 1% NP-40 (binding buffer). The column was washed with 20 volumes of this buffer and 20 volumes of 50 mM HEPES pH 7.5, 0.5% NP-40 in a syringe column, and re-equilibrated to binding buffer. An equivalent column with no compound 8 was also prepared. 150 ug of solubilized membranes from RPMI 8866 cells were applied to the both columns, washed with 3 ml binding buffer, 3 ml binding buffer with 0.1 M NaCl, and 3 ml binding buffer with 50 uM compound 2. Each 1 ml fraction was concentrated, diluted 10-fold and reconcentrated if compound 2 was present, and assayed as in biological example 2. For the column with no compound 8, CD23 processing activity was detected primarily in fractions 1-3, with a small amount in fractions 5 and 6.

In test [3] the test system is CD23 processing enzyme. Kind of test: Photolabeling of membranes or solubilized membrane proteins containing the CD23 processing enzyme, 12% SDS-PAGE / 2-dimensional gel electrophoresis. Format: binding. The following applies: for molecular weight range of photolabeled bands: 12% SDS-PAGE, ECL detection, several bands. How it is done:
Compound 4 (Synthetic Example 17), Compound 5 (Synthetic Example 17a), Compound 6 (Synthetic Example 25), and Compound 7 (Synthetic Example 27) can also be used to photolabel membranes or solubilized membrane proteins containing the CD23 processing enzyme, using the same method described for compound 3. Analysis by 12% SDS-PAGE and ECL detection of biotinylated protein, using streptavidin-HRP detects several bands in the molecular weight range 50-65 kDa.
Up to 200 ug of membrane proteins in PBS were solubilized in 0.1 % NP-40 and photolabeled with 0.1 to 0.3 uM compound 4 or 1 uM compound 3 as described for compound 3 above. The sample was then dialyzed vs. 10 mM potassium phosphate pH 7.5, 0.1% NP-40, concentrated in a Centricon 10 (Amicon, Beverly Mass.), then made 8 M in urea, 2% in Triton X-100, 0. 8% in Pharmalyte 3-10 (Pharmacia) and 50 mM in DTT. After electrophoresis in both dimensions, the proteins were blotted to PVDF, and biotinylated proteins detected with streptavidin-HRP as described above. The majority of the minor biotinylated spots observed were in the molecular weight range 50-65 kDa and were acidic proteins with pH in the range 4.5-6.0.

In another test the test system is CD23 fragments. The following applies: 10-20 mM, cell cultures; cited from earlier work.
The mark [4] stands for this setting: 2-dimensional gel electrophoresis, 0.1 to 0.3 uM compound 4 or 1 uM compound 3.

For `c1cnc2c(c1)ccc1cccnc12` [1,10-phenanthroline], in the test with CD23 processing enzyme [1], the “inhibition of activity producing the 33 kDa fragment” value is “inhibition; also recorded: inhibited”. Further, the “inhibition of CD23 processing” value with CD23 processing enzyme [2] (1 mM) is given as “inhibited”.

With `CNC(=O)[C@H](Cc1ccccc1)NC(=O)[C@H](CC(C)C)[C@H](CSc1cccs1)C(=O)NO` [Compound 1, [4-(N-Hydroxyamino)-2-(R)-isobutyl-3-(S)-(2-thiophenethiomethyl)succinyl]-(S)-phenylalanine-N-methylamide, sodium salt], the “inhibition of activity producing the 33 kDa fragment” value in the test on CD23 processing enzyme [1] was “inhibited”. Besides, the “inhibition of CD23 processing” value with CD23 processing enzyme [2] (concentration not given) is “inhibited”. Also, the half-inhibitory concentration (IC50) (usually the concentration that inhibits the measured activity by half) in the test on CD23 processing enzyme [2] came out at 100 ± 50 nM.

`CC(C)C[C@H](CC(=O)NO)C(=O)N[C@@H](Cc1ccccc1)C(=O)NCc1ccccc1` [Compound 2]: the “inhibition of CD23 processing” value with CD23 processing enzyme [2] (concentration not given) was “weaker inhibitor”. For the same compound, in the test with CD23 processing enzyme [2], the IC50 was 2000 ± 1000 nM. Moreover, the “elution of CD23 processing activity from affinity column with compound 8” value with CD23 processing activity (50 uM compound 2) was “specifically eluted”.

In the case of `CC(C)C[C@@H](C(=O)N[C@@H](Cc1ccccc1)C(=O)NCCCCCCNC(=O)CCCC[C@@H]1SC[C@@H]2NC(=O)N[C@@H]21)[C@H](CSCC(=NO)c1ccc(N=[N+]=[N-])cc1)C(=O)NO` [Compound 4, N-[4-N' Hydroxyamino-3-(S)-3-[(2-[4-azidophenyl]-2-[hydroxyimino]ethyl)-thiomethyl]-2-(R)-2-(2-methylpropyl)succinyl]-S-phenylalanine-N'-(6biotinoylaminohexyl)amide], in the test with CD23 processing enzyme [3] (setting [4]), the “molecular weight range of majority of minor biotinylated spots” value is 50-65 kDa and the “pH range of minor biotinylated spots (acidic proteins)” value is reported as 4.5-6.0. For the same compound, the “molecular weight range of photolabeled bands” value in the test with CD23 processing enzyme [3] is recorded as 50-65 kDa.

As to `CC(C)C[C@@H](C(=O)N[C@@H](Cc1ccccc1)C(=O)NCCCCCCNC(=O)CCCC[C@@H]1SC[C@@H]2NC(=O)N[C@@H]21)[C@H](CSCC(=O)c1ccc(N=[N+]=[N-])cc1)C(=O)NO` [Compound 5, N-[4-Hydroxyamino-3-(S)-3-(4-azidophenacylthiomethyl)-2-(R)-2-(2-methylpropyl)succinyl]-S-phenylalanine-N'-(6-biotinoylaminohexyl)amide], the “molecular weight range of photolabeled bands” value in the test on CD23 processing enzyme [3] is on record as 50-65 kDa.

As for `CC(C)(C)[C@H](NC(=O)[C@H](Cc1ccc(N=[N+]=[N-])cc1)[C@H](O)C(=O)NO)C(=O)NCCCCCCNC(=O)CCCC[C@@H]1SC[C@@H]2NC(=O)N[C@@H]21` [Compound 6, N'-[3S-Hydroxy-4-(N-hydroxyamino)-2R-(4-azidobenzyl)succinyl]-S-tert-leucine-N-(6-biotinoylaminohexyl)amide], the “molecular weight range of photolabeled bands” value in the test with CD23 processing enzyme [3] is given as 50-65 kDa.

`CC(C)C[C@@H](C(=O)N[C@@H](Cc1ccccc1)C(=O)NCCCCCCNC(=O)CCCC[C@@H]1SC[C@@H]2NC(=O)N[C@@H]21)[C@H](CSCc1ccc(C(=O)c2ccccc2)cc1)C(=O)NO` [Compound 7, N-[(3-(S)-(4-benzoylbenzyl)thiomethyl-4-(N-Hydroxyamino)-2R-isobutyl)succinyl]-(S)-phenylalanine-N-(6-biotinoylaminohexyl)amide]: the “molecular weight range of photolabeled bands” value in the test on CD23 processing enzyme [3] is reported as 50-65 kDa.

As for `C#CCSC[C@H](C(=O)NO)[C@@H](CC(C)C)C(=O)N[C@@H](Cc1ccccc1)C(=O)NCCCCCCNC(=O)CCCC[C@@H]1SC[C@@H]2NC(=O)N[C@@H]21` [Compound 8, N-[(3-(S)-propargylthiomethyl-4-(N-Hydroxyamino)-2R-isobutyl)succinyl]-(S)-phenylalanine-N-(6-biotinoylaminohexyl)amide], the “inhibition of CD23 processing” value with CD23 processing enzyme [2] (concentration not given) was “inhibitor of CD23 cleavage activity”. For the same compound, the “fractions in which CD23 processing activity was detected, column with compound 8” value with CD23 processing activity (binding buffer, then 0.1 M NaCl, then 50 uM compound 2, fractions 1-9) is “only in fractions 7-9”.

With `Cc1ccc(S(=O)(=O)N[C@@H](CCCCN)C(=O)CCl)cc1` [TLCK], the “inhibition of CD23 processing” value with CD23 processing enzyme [2] (concentration not given) was “not inhibited”.

For the compound `NC(=O)CI` [iodoacetamide], in the test with CD23 fragments, the “accumulation of 37 and 33 kDa CD23 fragments” value is listed as “results in the accumulation”; the “accumulation of the 25-27 kDa CD23 fragments” value was “prevents the accumulation”.

As to `CC(C)C[C@H](NP(=O)(O)O[C@@H]1O[C@@H](C)[C@H](O)[C@@H](O)[C@H]1O)C(=O)N[C@@H](Cc1c[nH]c2ccccc12)C(=O)O` [phosphoramidon], in the test with CD23 processing enzyme [2] (100 uM), the inhibition (as a rule, the percentage by which the read-out fell short of the control) was found to be 40% and the “inhibition of CD23 processing” value is given as “weakly”.
